Consider 1 compound from patent US20150299182A1, “CRYSTALLINE FORMS OF (1S)-1-[5-(AMINO)-1,2,4-THIADIAZOL-3-YL]ETHANE-1,2-DIOL” (Array BioPharma Inc., priority 2012, published 2015).

Data set [1] in a line: Thermal stability characteristics. The data set is classed as physicochemical. How it is done:
The thermal properties of AMG151 samples were characterized using a DSC Q1000 or DSC Q 100, TA Instruments, differential scanning calorimetry, and a TGA Q 500, TA Instruments, thermogravimetric analyzer. Data analysis was performed utilizing Universal Analysis 2000, TA Instruments. Heating rates of 10° C./min were used over a variety of temperature ranges for differential scanning calorimetry and thermogravimetric analysis. Samples ranging from <1-5 mg were prepared in crimped or open aluminum pans for DSC analysis.

The nature of data set [2]: Moisture balance / vapor sorption (hygroscopicity). In kind it is physicochemical. As to conditions: vapor sorption, 5% to 95% relative humidity. How it is done:
Moisture balance data was collected using a VTI SGA 100 or SGA CX symmetrical vapor sorption analyzer. Relative humidity was varied in increments or 5%, starting at 5% relative humidity thereby increasing to 95% relative humidity, and then undergoing a drying cycle back to 5% relative humidity. Equilibrium criteria was set at 0.01% weight change in 1 minute with a max equilibrium time of 180 minutes. Approximately 1-15 mg of sample was used.

Where a name gives a salt, the structure may show the parent alone.

Regarding `Cc1ncccc1Oc1cc(Sc2ccccn2)cnc1Nc1nc([C@H](O)CO)ns1` [mono-hydrochloride salt Form C, (1S)-1-[5-({3-[(2-methylpyridin-3-yl)oxy]-5-(pyridin-2-ylsulfanyl)pyridin-2-yl}amino)-1,2,4-thiadiazol-3-yl]ethane-1,2-diol], the thermal stability entry in data set [1] is “less preferred thermal stability characteristics”. For the same compound, in data set [2], the hygroscopicity entry was “hygroscopic”.
